In the supplement of paper PMC10011410:

Legend:
U-2 OS [1] = assay: AUC of culture confluence over time (live-cell imaging) (AUC (confluence % x time)); higher = more confluent culture (less growth inhibition)
Method: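 Live-cell Incucyte imaging of U-2 OS cells in F-12K medium. Compounds were tested mostly at 5, 10 and 20 uM, and cells were imaged every 4 h for up to 60 h. Value is the area under the curve of phase-contrast confluence over time.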

U-2 OS [2] = assay: cell painting activity score (Mahalanobis distance from DMSO wells); higher = stronger morphological phenotype; details: 24 h
Method: (§1)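 Cell painting in U-2 OS cells (384-well, about 1,500 cells per well), compound exposure 24 h, usually six 2-fold concentrations from 20 to 0.625 uM (some compounds higher or lower). Relative cell count is the cell number per well relative to DMSO wells. Activity score is the Mahalanobis distance of the morphological profile from DMSO control wells. Mean of four technical replicate plates.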

U-2 OS [3] = assay: relative cell count vs DMSO (cell painting) (fraction of DMSO control); higher = more cells remaining (less cytotoxic); details: 24 h
Method: as §1

Structure (SMILES) | AUC of culture confluence over time (U-2 OS [1]; 5 µM) | AUC of culture confluence over time (U-2 OS [1]; 10 µM) | AUC of culture confluence over time (U-2 OS [1]; 20 µM) | cell painting activity score (U-2 OS [2]; 0.625 µM) | cell painting activity score (U-2 OS [2]; 1.25 µM) | cell painting activity score (U-2 OS [2]; 2.5 µM) | cell painting activity score (U-2 OS [2]; 5 µM) | cell painting activity score (U-2 OS [2]; 10 µM) | cell painting activity score (U-2 OS [2]; 20 µM) | relative cell count (U-2 OS [3]; 0.625 µM) | relative cell count (U-2 OS [3]; 1.25 µM) | relative cell count (U-2 OS [3]; 2.5 µM) | relative cell count (U-2 OS [3]; 5 µM) | relative cell count (U-2 OS [3]; 10 µM) | relative cell count (U-2 OS [3]; 20 µM) | AUC of culture confluence over time (U-2 OS [1]; 40 µM) | AUC of culture confluence over time (U-2 OS [1]; 80 µM) | cell painting activity score (U-2 OS [2]; 40 µM) | cell painting activity score (U-2 OS [2]; 80 µM) | relative cell count (U-2 OS [3]; 40 µM) | relative cell count (U-2 OS [3]; 80 µM)
Cl.Nc1ccc(O)c2ccccc12 | 31.2 | 23.5 | 18 | 8.19 | 6.08 | 9.4 | 14.3 | 15.3 | 30.8 | 0.931 | 0.895 | 0.888 | 0.75 | 0.623 | 0.09 |  |  |  |  |  | 
C[C@@H]1O[C@@H](O[C@H]2[C@H](OC(=O)[C@]34CCC(C)(C)C[C@H]3C3=CC[C@@H]5[C@@]6(C)C[C@H](O)[C@H](O[C@@H]7O[C@H](CO)[C@@H](O)[C@H](O)[C@H]7O)[C@@](C)(CO)[C@@H]6CC[C@@]5(C)[C@]3(C)CC4)O[C@H](CO)[C@@H](O)[C@@H]2O)[C@H](O)[C@H](O)[C@H]1O[C@@H]1OC[C@@H](O)[C@H](O)[C@H]1O | 52.4 | 46.4 | 51 | 4.19 | 4.7 | 5.42 | 5.5 | 6.76 | 3.23 | 0.996 | 0.972 | 0.947 | 0.97 | 0.984 | 0.999 |  |  |  |  |  | 
O=C1c2ccccc2[Se](=O)N1c1ccccc1 (stereo not drawn) | 31.5 | 18.8 | 18.2 | 5.57 | 10.4 | 15.8 | 17 | 15.8 | 13.8 | 0.985 | 0.943 | 0.991 | 0.954 | 0.805 | 0.111 |  |  |  |  |  | 
C/C1=C/C(=O)O[C@@H]2C[C@@H](CC[C@H](C)/C=C\CC1)O[C@@](O)([C@@H]1CSC(=O)N1)C2 | 27.1 | 20.9 | 20.7 | 8.28 | 14.2 | 15.4 | 14.9 | 17.7 | 20 | 0.941 | 0.878 | 0.759 | 0.691 | 0.664 | 0.53 |  |  |  |  |  | 
CC1=C2C(=CO[C@H](C)[C@H]2C)C(=O)C(C(=O)O)=C1O | 48.9 | 45.6 | 42 | 4.49 | 5.94 | 4.77 | 8.7 | 6.33 | 10.3 | 0.985 | 0.942 | 0.951 | 0.893 | 0.935 | 0.793 |  |  |  |  |  | 
O=NN(CCCl)C(=O)NC1CCCCC1 | 46.1 | 48.4 | 47.4 | 3.56 | 4.22 | 4.72 | 4.42 | 4.76 | 7.36 | 0.975 | 0.937 | 0.985 | 0.988 | 0.963 | 0.875 |  |  |  |  |  | 
CC[C@H]1CN2CCc3cc(OC)c(OC)cc3[C@@H]2C[C@@H]1C[C@H]1NCCc2cc(OC)c(OC)cc21.Cl.Cl.O | 15.2 | 16 | 16.6 | 18.4 | 18.9 | 19.4 | 20.8 | 20.8 | 20.6 | 0.51 | 0.489 | 0.482 | 0.462 | 0.462 | 0.433 |  |  |  |  |  | 
Nc1nc(Cl)nc2c1ncn2[C@H]1C[C@H](O)[C@@H](CO)O1 | 30.2 | 34.5 | 33.3 | 12.6 | 13.3 | 13.6 | 14 | 14.8 | 15.2 | 0.638 | 0.588 | 0.583 | 0.555 | 0.55 | 0.539 |  |  |  |  |  | 
Oc1cc(O)cc(/C=C/c2ccc(O)c(O)c2)c1 | 49.3 | 53.9 | 45.4 | 3.37 | 3.39 | 4.93 | 8.04 | 10.9 | 13.7 | 1.06 | 1.01 | 0.995 | 0.951 | 0.958 | 0.886 |  |  |  |  |  | 
COc1cc(=O)oc(/C=C/C=C/C=C/C(C)=C/[C@]2(C)O[C@H](C)[C@](C)(O)[C@H]2O)c1C | 34.4 | 30.9 | 27.2 | 4.29 | 4.47 | 6.44 | 11.5 | 12.8 | 12.1 | 0.993 | 0.982 | 0.972 | 0.928 | 0.826 | 0.758 |  |  |  |  |  | 
Cc1ccc(C(=O)N(CCCN)[C@@H](c2nc3cc(Cl)ccc3c(=O)n2Cc2ccccc2)C(C)C)cc1 | 18.6 | 21.1 | 9.6 | 11.9 | 10.6 | 13.1 | 13.9 | 28.6 | 17.6 | 0.22 | 0.209 | 0.227 | 0.225 | 0.0173 | 0.0529 |  |  |  |  |  | 
Nc1nccc2c1ncn2[C@@H]1C=C(CO)[C@@H](O)[C@H]1O | 36.9 | 32.7 | 34.3 | 18.6 | 18.8 | 26.9 | 28 | 26.4 | 26.2 | 0.949 | 0.964 | 0.944 | 0.938 | 0.941 | 0.94 |  |  |  |  |  | 
C[C@@H]1C[C@@H]([C@H](O)CC2CC(=O)NC(=O)C2)C(=O)[C@@H](C)C1 | 21 | 19.4 | 20.1 | 9.38 | 9.5 | 11.4 | 11.5 | 12.8 | 14.2 | 0.783 | 0.651 | 0.576 | 0.534 | 0.475 | 0.479 |  |  |  |  |  | 
C#CC[C@H](c1nc2cc(Cl)ccc2c(=O)n1Nc1ccccc1)N(CCCN)C(=O)c1cccc(Cl)c1F | 26.8 | 13.2 | 10.4 | 4.72 | 4.61 | 4.15 | 10.3 | 12.9 | 26.1 | 0.999 | 0.984 | 0.903 | 0.401 | 0.198 | 0.0211 |  |  |  |  |  | 
COc1cc([C@@H]2c3cc4c(cc3[C@@H](O[C@@H]3O[C@@H]5CO[C@@H](C)O[C@H]5[C@H](O)[C@H]3O)[C@H]3COC(=O)[C@H]23)OCO4)cc(OC)c1O | 26.2 | 24.8 | 18.3 | 11.9 | 14 | 12.9 | 14.6 | 14.4 | 15.2 | 0.661 | 0.635 | 0.568 | 0.604 | 0.551 | 0.536 |  |  |  |  |  | 
COc1cc(OC)c2ccccc2c1C=C1C(=O)NC(=S)NC1=O | 13.1 | 12.8 | 13.6 | 13.6 | 16.2 | 16.1 | 16.1 | 18 | 17.8 | 0.833 | 0.687 | 0.472 | 0.428 | 0.377 | 0.379 |  |  |  |  |  | 
CC(C)=C[C@@H]1CO[C@]23C[C@]4(CO2)[C@H](CC[C@@H]2[C@@]5(C)CC[C@H](O[C@@H]6OC[C@H](O)[C@H](O[C@@H]7O[C@H](CO)[C@@H](O)[C@H](O)[C@H]7O)[C@H]6O[C@@H]6O[C@@H](CO)[C@H](O)[C@H]6O)C(C)(C)[C@@H]5CC[C@]24C)[C@H]3[C@@]1(C)O | 44.4 | 15.8 | 23.9 | 4.86 | 4.19 | 6.77 | 9.86 | 22.5 | 29.1 | 0.956 | 0.977 | 1.02 | 0.762 | 0.393 | 0.0257 |  |  |  |  |  | 
ClC1=CC=C(C2=CSC(N/N=C3CCCC/3)=N2)C=C1 |  |  |  | 3.41 | 3.02 | 4.44 | 4.27 | 4.6 | 7.83 | 1.01 | 1.04 | 0.973 | 1 | 0.97 | 0.882 | 39.7 | 41.8 | 10 | 11 | 0.758 | 0.766
